Legend:
CK1ϵ = CK1ϵ (Homo sapiens, UniProt P49674); experiment: CK1ϵ kinase assay (Caliper LABCHIP electrophoretic separation of fluoresceinated peptide substrate and product); format: biochemical; conditions: 200 pM CK1ϵ, 50 μM ATP, 1.5 μM peptide substrate, 22 hours at room temperature; read-out: CK1ε (IC50)
Protocol: (§1) CK1ϵ and CK1δ Kinase Assays
(§2) The kinase assay was performed in V-bottom 384-well plates.
(§3) The reaction was incubated at room temperature for 22 hours and terminated by adding 45 μl of 35 mM EDTA to each sample. The reaction mixture was analyzed on the Caliper LABCHIP®3000 (Caliper, Hopkinton, Mass.) by electrophoretic separation of the unphosphorylated substrate and phosphorylated product. […] Compounds were dissolved at 10 mM in dimethylsulfoxide (DMSO) and evaluated at eleven concentrations. IC50 values were derived by non-linear regression analysis.

CK1δ = CK1δ (Homo sapiens, UniProt P48730); experiment: CK1δ kinase assay (Caliper LABCHIP electrophoretic separation of fluoresceinated peptide substrate and product); format: biochemical; conditions: 200 pM CK1δ, 50 μM ATP, 1.5 μM peptide substrate, 22 hours at room temperature
Sequence of CK1δ (P48730 whole entry): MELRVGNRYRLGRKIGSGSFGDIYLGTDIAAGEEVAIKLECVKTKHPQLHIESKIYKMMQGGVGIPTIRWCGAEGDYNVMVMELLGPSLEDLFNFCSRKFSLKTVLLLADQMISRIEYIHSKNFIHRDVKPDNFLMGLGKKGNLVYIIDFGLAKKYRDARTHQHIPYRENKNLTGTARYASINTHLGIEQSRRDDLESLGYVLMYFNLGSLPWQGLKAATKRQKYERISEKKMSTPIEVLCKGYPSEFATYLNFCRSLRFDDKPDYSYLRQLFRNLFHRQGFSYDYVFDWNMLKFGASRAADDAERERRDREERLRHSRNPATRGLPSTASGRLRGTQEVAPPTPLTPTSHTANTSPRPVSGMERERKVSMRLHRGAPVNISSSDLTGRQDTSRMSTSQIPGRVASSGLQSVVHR
Protocol: as §1, §2, §3

Sequence of CK1ϵ (P49674 whole entry): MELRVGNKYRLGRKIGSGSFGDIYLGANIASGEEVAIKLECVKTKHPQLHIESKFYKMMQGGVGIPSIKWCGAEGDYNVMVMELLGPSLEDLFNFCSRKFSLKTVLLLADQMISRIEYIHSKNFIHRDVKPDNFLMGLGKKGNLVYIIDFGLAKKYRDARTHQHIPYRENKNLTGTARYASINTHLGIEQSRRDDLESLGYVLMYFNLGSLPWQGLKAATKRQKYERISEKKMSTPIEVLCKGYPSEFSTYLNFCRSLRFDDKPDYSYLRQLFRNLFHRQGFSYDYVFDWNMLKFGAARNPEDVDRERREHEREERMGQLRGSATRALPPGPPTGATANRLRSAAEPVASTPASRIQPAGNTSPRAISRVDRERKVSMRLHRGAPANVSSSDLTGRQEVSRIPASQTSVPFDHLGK

| Compound | IC50 (CK1ϵ) [nM] | IC50 (CK1δ) [nM] |
| --- | --- | --- |
| O=C(Nc1cn2nc(-c3c(-c4ccc(F)cc4)nn4c3CN(C(=O)CCC(F)(F)F)CC4)ccc2n1)c1ccnc(F)c1 [Example 16, 2-Fluoro-N-(6-(2-(4-fluorophenyl)-5-(4,4,4-trifluorobutanoyl)-4,5,6,7-tetrahydropyrazolo[1,5-a]pyrazin-3-yl)imidazo[1,2-b]pyridazin-2-yl) isonicotinamide] | 4.9 | 0.8 |
| O=C(Nc1cn2nc(-c3c(-c4ccc(F)cc4)nn4c3CN(C(=O)NC3(C(F)(F)F)CC3)CC4)ccc2n1)c1ccnc(F)c1 [Example 51, 3-(2-(2-Fluoroisonicotinamido)imidazo[1,2-b]pyridazin-6-yl)-2-(4-fluorophenyl)-N-(1-(trifluoromethyl)cyclopropyl)-6,7-dihydropyrazolo[1,5-a] pyrazine-5(4H)-carboxamide] | 12.3 | 1.5 |
| O=C(Nc1cn2nc(-c3c(-c4ccc(F)cc4)nn4c3CN(C(=O)NC3CC3)CC4)ccc2n1)c1ccnc(F)c1 [Example 46, N-Cyclopropyl-3-(2-(2-fluoroisonicotinamido)imidazo[1,2-b]pyridazin-6-yl)-2-(4-fluorophenyl)-6,7-dihydropyrazolo[1,5-a]pyrazine-5(4H)-carboxamide] | 2.5 | 0.4 |
| Cc1nc(C(F)(F)F)ccc1C(=O)Nc1cn2nc(-c3c(-c4ccc(F)cc4)nn4c3CNCC4)ccc2n1 [Example 11, N-(6-(2-(4-Fluorophenyl)-4,5,6,7-tetrahydropyrazolo[1,5-a]pyrazin-3-yl)imidazo[1,2-b]pyridazin-2-yl)-2-methyl-6-(trifluoromethyl)nicotinamide] | 15.2 | 1.8 |
| O=C(Nc1cn2nc(-c3c(-c4ccc(F)cc4)nn4c3CN(C(=O)Nc3ccc(C(F)(F)F)cc3)CC4)ccc2n1)c1ccnc(F)c1 [Example 47, 3-(2-(2-Fluoroisonicotinamido)imidazo[1,2-b]pyridazin-6-yl)-2-(4-fluorophenyl)-N-(4-(trifluoromethyl)phenyl)-6,7-dihydropyrazolo[1,5-a]pyrazine-5(4H)-carboxamide] | 146 | 12 |
| O=C(Nc1cn2nc(-c3c(-c4ccc(F)cc4)nn4c3CN(CCC(F)(F)F)CC4)ccc2n1)c1ccnc(F)c1 [Example 27, 2-Fluoro-N-(6-(2-(4-fluorophenyl)-5-(3,3,3-trifluoropropyl)-4,5,6,7-tetrahydropyrazolo[1,5-a]pyrazin-3-yl)imidazo[1,2-b]pyridazin-2-yl)isonicotinamide] | 3.6 | 0.5 |
| O=C(Nc1cn2nc(-c3c(-c4ccc(F)cc4)nn4c3CN(C(=O)NCCC(F)(F)F)CC4)ccc2n1)c1ccnc(F)c1 [Example 50, 3-(2-(2-Fluoroisonicotinamido)imidazo[1,2-b]pyridazin-6-yl)-2-(4-fluorophenyl)-N-(3,3,3-trifluoropropyl)-6,7-dihydropyrazolo[1,5-a] pyrazine-5(4H)-carboxamide] | 9.3 | 0.7 |
| O=C(Nc1cn2nc(-c3c(-c4ccc(F)cc4)nn4c3CN(S(=O)(=O)Cc3ccccc3)CC4)ccc2n1)c1ccnc(F)c1 [Example 40, N-(6-(5-(Benzylsulfonyl)-2-(4-fluorophenyl)-4,5,6,7-tetrahydropyrazolo[1,5-a]pyrazin-3-yl)imidazo[1,2-b]pyridazin-2-yl)-2-fluoroisonicotinamide] | 10.3 | 2.8 |
| O=C(Nc1cn2nc(-c3c(-c4ccc(F)cc4)nn4c3CN(C(=O)NC35CC6CC(CC(C6)C3)C5)CC4)ccc2n1)c1ccnc(F)c1 [Example 45, N-(Adamantan-1-yl)-3-(2-(2-fluoroisonicotinamido)imidazo [1,2-b]pyridazin-6-yl)-2-(4-fluorophenyl)-6,7-dihydropyrazolo[1,5-a]pyrazine-5(4H)-carboxamide] | 154 | 19.2 |
| CC(=O)N1CCn2nc(-c3ccc(F)cc3)c(-c3ccc4nc(NC(=O)c5ccnc(F)c5)cn4n3)c2C1 [Example 12, N-(6-(5-Acetyl-2-(4-fluorophenyl)-4,5,6,7-tetrahydropyrazolo[1,5-a]pyrazin-3-yl)imidazo[1,2-b]pyridazin-2-yl)-2-fluoroisonicotinamide] | 2 | 0.3 |
| O=C(Nc1cn2nc(-c3c(-c4ccc(F)cc4)nn4c3CN(C3COC3)CC4)ccc2n1)c1ccnc(F)c1 [Example 30, 2-Fluoro-N-(6-(2-(4-fluorophenyl)-5-(oxetan-3-yl)-4,5,6,7-tetrahydropyrazolo[1,5-a]pyrazin-3-yl)imidazo[1,2-b]pyridazin-2-yl)isonicotinamide] | 6.5 | 0.5 |
| O=C(Nc1cn2nc(-c3c(-c4ccc(F)cc4)nn4c3CNCC4)ccc2n1)c1ccnc(C(F)(F)F)c1 [Example 10, N-(6-(2-(4-Fluorophenyl)-4,5,6,7-tetrahydropyrazolo[1,5-a]pyrazin-3-yl)imidazo[1,2-b]pyridazin-2-yl)-2-(trifluoromethyl)isonicotinamide] | 12.6 | 2.1 |

Continued, values first:

| IC50 (CK1ϵ) [nM] | IC50 (CK1δ) [nM] | Compound |
| --- | --- | --- |
| 2.6 | 0.3 | O=C(Nc1cn2nc(-c3c(-c4ccc(F)cc4)nn4c3COCC4)ccc2n1)c1ccncc1 [Example 54, N-(6-(2-(4-Fluorophenyl)-6,7-dihydro-4H-pyrazolo[5,1-c][1,4]oxazin-3-yl)imidazo[1,2-b]pyridazin-2-yl)isonicotinamide] |
| 4.1 | 0.4 | O=C(Nc1cn2nc(-c3c(-c4ccc(F)cc4)nn4c3COCC4)ccc2n1)c1ccnc(F)c1 [Example 53, 2-Fluoro-N-(6-(2-(4-fluorophenyl)-6,7-dihydro-4H-pyrazolo[5,1-c][1,4]oxazin-3-yl)imidazo[1,2-b]pyridazin-2-yl)isonicotinamide] |
| 7.7 | 0.9 | CC1(NC(=O)N2CCn3nc(-c4ccc(F)cc4)c(-c4ccc5nc(NC(=O)c6ccnc(F)c6)cn5n4)c3C2)CC1 [Example 52, 3-(2-(2-Fluoroisonicotinamido)imidazo[1,2-b]pyridazin-6-yl)-2-(4-fluorophenyl)-N-(1-methylcyclopropyl)-6,7-dihydropyrazolo[1,5-a] pyrazine-5(4H)-carboxamide] |
| 3.6 | 0.3 | O=C(Nc1cn2nc(-c3c(-c4ccc(F)cc4)nn4c3CCC4)ccc2n1)c1ccccc1 [Example 68, N-(6-(2-(4-Fluorophenyl)-5,6-dihydro-4H-pyrrolo[1,2-b]pyrazol-3-yl)imidazo[1,2-b]pyridazin-2-yl)benzamide] |
| 3.9 | 0.5 | O=C(Nc1cn2nc(-c3c(-c4ccc(F)cc4)nn4c3CCCC4)ccc2n1)c1cc(F)nc(F)c1 [Example 64, 2,6-Difluoro-N-(6-(2-(4-fluorophenyl)-4,5,6,7-tetrahydropyrazolo[1,5-a]pyridin-3-yl)imidazo[1,2-b]pyridazin-2-yl) isonicotinamide] |
| 1.2 | 0.3 | O=C(Nc1cn2nc(-c3c(-c4ccc(F)cc4)nn4c3CCCC4)ccc2n1)c1ccncc1 [Example 63, N-(6-(2-(4-Fluorophenyl)-4,5,6,7-tetrahydropyrazolo[1,5-a]pyridin-3-yl)imidazo[1,2-b]pyridazin-2-yl) isonicotinamide] |

— patent US9956220B2, “Imidazo-pyridazine derivatives as casein kinase 1 δ/ϵ inhibitors” (Bristol-Myers Squibb Company, priority 2014, dated 2018)
